Source: patent publication US7612071B2, “Compositions and methods employing aminopterin” (Syntrix Biosystems, Inc., priority 2004, dated 2009)
Read-outs that look alike come from different tables or passages of the source.

Assays:
[1] = MTX 15-25 mg/m^2 PO, n=38, prior art; cited from earlier work
[2] = MTX 15-25 mg/m^2, pediatric patients, n=22, prior art; cited from earlier work
[3] = mice, 4 weekly ip doses (aminopterin 0.03 mg/kg, methotrexate 0.3 mg/kg); days 1 and 22 after last dose
[4] = oral doses greater than about 7.5 mg/m^2; cited from earlier work
[5] = MTX 15-25 mg/m^2 PO, n=22, prior art; cited from earlier work
[6] = tested on: standard and high-risk ALL; conditions: for Toxicity Component: Antifolate dose causing 5.8% of the population to have the toxicity: Elevations in liver enzymes >5 times normal (severe hepatotoxicity)
[7] = AMT 2 mg/m^2 PO x 2 (n=75), MTX 25 mg/m^2 PO x 4 (n=41)
[8] = AMT 2 mg/m^2 PO x 2 (n=81), MTX 25 mg/m^2 PO x 4 (n=42)
[9] = AMT 2 mg/m^2 PO x 2 (n=104), MTX 25 mg/m^2 PO x 4 (n=63)

For `CN(Cc1cnc2nc(N)nc(N)c2n1)c1ccc(C(=O)N[C@@H](CCC(=O)O)C(=O)O)cc1` [MTX, methotrexate, reference compound], the “Mean intrapatient coefficient of variation of oral bioavailability” value [1] is given as 34%, the “Interpatient oral bioavailability (%)” value [2] is given as 44% and the “Maximum (%) oral bioavailability” value [2] is given as 95%. For the same compound, the “Minimum (%) oral bioavailability” value [2] was 6%, the “antifolate content in liver, aminopterin vs methotrexate” value [3] was “no different” and the oral bioavailability [4] was ≤ 44%. For the same compound, the “Interpatient coefficient of variation of oral bioavailability” value [5] was 59%, the “Event-free survival (EFS) at 24-months, Kaplan Meier” value ([6]; 25 high risk patients receiving aminopterin, standard risk patients receiving methotrexate) was 86% and the “Coefficient of variation of toxicity, absolute neutrophil count in consolidation” value [6, 7] was 85%. For the same compound, the “Mean absolute neutrophil count in consolidation” value [6, 7] was 1919 cells/μL, the “Coefficient of variation of toxicity, platelet counts in consolidation” value [6, 8] was 47% and the “Mean platelet counts in consolidation” value [6, 8] was 312 cells × 10^3/μL. For the same compound, the “Coefficient of variation of toxicity, level of liver enzymes above normal” value [6, 9] was 36%, the “Mean level of liver enzymes above normal” value [6, 9] was 177 IU/L ALT and the “Coefficient of variation of toxicity, level of liver enzymes above normal” value ([6]; AMT 2 mg/m^2 PO x 2 (n=104), MTX 25 mg/m^2 PO x 4 (n=63), listed as methotrexate) was 36%. The “Toxicity Component: Antifolate dose with same toxicity as MTX at 100 mg/m^2/wk” value (“Toxicity Component … at 100 mg/m^2/wk” for short) ([6]; Any elevation of liver enzymes) was 100 mg/m^2/wk, the “Toxicity Component: Antifolate dose causing 5.8% of the population to have the toxicity” value [6] was <100 mg/m^2/wk and the “Toxicity Component: Antifolate dose causing 5.8% of the population to have the toxicity” value ([6]; listed as methotrexate) was “less than 100 mg/m^2/wk”. The “Toxicity Component … at 100 mg/m^2/wk” value ([6]; Hospital admissions) was 100 mg/m^2/wk, the “Toxicity Component … at 100 mg/m^2/wk” value ([6]; Mucositis) was 100 mg/m^2/wk and the “Toxicity Component … at 100 mg/m^2/wk” value ([6]; Myelosuppression) was 100 mg/m^2/wk. The “Toxicity Component … at 100 mg/m^2/wk” value ([6]; Neutropenia) was 100 mg/m^2/wk, the “Toxicity Component … at 100 mg/m^2/wk” value ([6]; Thrombocytopenia) was 100 mg/m^2/wk and the “Toxicity Component … at 100 mg/m^2/wk” value ([6]; Treatment interruptions) was 100 mg/m^2/wk. For the same compound, the “Toxicity Component … at 100 mg/m^2/wk” value ([6]; eAMT and eMTX (marrow exposure)) was 100 mg/m^2/wk.
